# Experimental data taken from ChEMBL document CHEMBL3228010, “Potential antitumor agents. 29. Quantitative structure-activity relationships for the antileukemic bisquaternary ammonium heterocycles” (J Med Chem, 1979).
# Key:
# [1] = Lipophilic-hydrophilic balance, Rm of the compound by partition chromatography; type: physicochemical
# L1210 [2] = experiment: Antitumor activity against mouse L1210 cells […] in ip dosed C3H X DBA2 F1 hybrid mouse on day 0 and dosed at LD10 level once daily on days 1 to 5 assessed as increase in life span relative to control; type: functional
# Mus musculus = experiment: Toxicity in ip dosed C3H X DBA2 F1 hybrid mouse […] with mouse L1210 cells on day 0 and dosed once daily on days 1 to 5 measured after 50 days; type: organism-based; conditions: in vivo, 1200 h
# L1210 [3] = experiment: Antitumor activity against mouse L1210 cells […] in ip dosed C3H X DBA2 F1 hybrid mouse on day 0 and dosed once daily on days 1 to 5 assessed as increase in life span relative to control; type: functional
Compound,Rm [1],log(ILSmax) (L1210 [2]),LD10 (Mus musculus),D40 (L1210 [3])
C[n+]1cccc2cc(NC(=O)Cc3ccc(CC(=O)Nc4ccc5c(ccc[n+]5C)c4)cc3)ccc21.Cc1ccc(S(=O)(=O)[O-])cc1.Cc1ccc(S(=O)(=O)[O-])cc1,0.07,,,
CCC[n+]1cccc(NC(=O)c2ccc(NC(=O)c3ccc(C(=O)Nc4ccc(C(=O)Nc5ccc[n+](CCC)c5)cc4)c(N)c3)cc2)c1.Cc1ccc(S(=O)(=O)[O-])cc1.Cc1ccc(S(=O)(=O)[O-])cc1,0.2,<1.4,47 mg/kg,
CCC[n+]1ccc(Nc2ccc(NC(=O)c3ccc(Nc4cc[n+](CCC)c5ccccc45)cc3)cc2N)cc1.[I-].[I-],0.76,1.43,4.4 mg/kg,
CCCC[n+]1cccc2cc(NC(=O)c3ccc(NC(=O)c4ccc5c(ccc[n+]5CCCC)c4)cc3)ccc21.Cc1ccc(S(=O)(=O)[O-])cc1.Cc1ccc(S(=O)(=O)[O-])cc1,0.59,<1.4,200 mg/kg,
C[n+]1ccc(Nc2ccc(NC(=O)c3ccc(Nc4cc[n+](C)c5cc(N)ccc45)cc3N)cc2)cc1.[Br-].[Br-],-0.12,2.45,20 mg/kg,1.2 mg/kg
CC[n+]1cc(-c2ccc(NC(=O)c3ccc(Nc4cc[n+](CC)c5ccccc45)cc3)cc2)c(N)nc1N.[I-].[I-],0.45,2.11,32 mg/kg,3.3 mg/kg
CCOCC[n+]1cccc2cc(NC(=O)c3ccc(C(=O)Nc4ccc5c(ccc[n+]5CCOCC)c4)cc3)ccc21.Cc1ccc(S(=O)(=O)[O-])cc1.Cc1ccc(S(=O)(=O)[O-])cc1,0.8,<1.4,20 mg/kg,
CCC[n+]1ccccc1NC(=O)c1ccc(NC(=O)c2ccc(C(=O)Nc3ccc(C(=O)Nc4cccc[n+]4CCC)cc3)cc2)cc1.Cc1ccc(S(=O)(=O)[O-])cc1.Cc1ccc(S(=O)(=O)[O-])cc1,0.73,<1.4,100 mg/kg,
CC[n+]1cccc2cc(NC(=O)c3ccc(NC(=O)c4ccc5c(ccc[n+]5CC)c4)cc3)ccc21.Cc1ccc(S(=O)(=O)[O-])cc1.Cc1ccc(S(=O)(=O)[O-])cc1,0.02,<1.4,4 mg/kg,
CCC[n+]1ccc(Nc2ccc(NC(=O)c3ccc(Nc4cc[n+](CCC)c5ccccc45)cc3N)cc2N)cc1.[I-].[I-],0.63,<1.4,15 mg/kg,
CCCCC[n+]1cccc2cc(NC(=O)c3ccc(C(=O)Nc4ccc5c(ccc[n+]5CCCCC)c4)nc3)ccc21.Cc1ccc(S(=O)(=O)[O-])cc1.Cc1ccc(S(=O)(=O)[O-])cc1,0.6,<1.4,250 mg/kg,
CC[n+]1ccc(Nc2ccc(NC(=O)c3ccc(Nc4cc[n+](CC)c5ccccc45)cc3N)cc2N)cc1.[I-].[I-],0.35,<1.4,20 mg/kg,
CCCC[n+]1cccc2cc(NC(=O)Cc3ccc(CC(=O)Nc4ccc5c(ccc[n+]5CCCC)c4)cc3)ccc21.Cc1ccc(S(=O)(=O)[O-])cc1.Cc1ccc(S(=O)(=O)[O-])cc1,0.92,,,
C[n+]1cccc2cc(NC(=O)c3ccc(C(=O)Nc4ccc5c(ccc[n+]5C)c4)nc3)ccc21.Cc1ccc(S(=O)(=O)[O-])cc1.Cc1ccc(S(=O)(=O)[O-])cc1,-0.4,<1.4,4 mg/kg,
C[n+]1cccc2cc(NC(=O)c3ccc(C(=O)Nc4ccc5c(ccc[n+]5C)c4)cc3)ccc21.Cc1ccc(S(=O)(=O)[O-])cc1.Cc1ccc(S(=O)(=O)[O-])cc1,-0.21,<1.4,5 mg/kg,
C[n+]1cccc2cc(NC(=O)/C=C/c3ccc(C(=O)Nc4ccc5c(ccc[n+]5C)c4)cc3)ccc21.Cc1ccc(S(=O)(=O)[O-])cc1.Cc1ccc(S(=O)(=O)[O-])cc1,-0.2,<1.4,3 mg/kg,
C[n+]1cccc2cc(NC(=O)CCc3ccc(C(=O)Nc4ccc5c(ccc[n+]5C)c4)cc3)ccc21.Cc1ccc(S(=O)(=O)[O-])cc1.Cc1ccc(S(=O)(=O)[O-])cc1,0.85,<1.4,270 mg/kg,
C[n+]1ccccc1-c1ccc(NC(=O)c2ccc(C(=O)Nc3ccc(-c4cccc[n+]4C)cc3)cc2)cc1.Cc1ccc(S(=O)(=O)[O-])cc1.Cc1ccc(S(=O)(=O)[O-])cc1,0.11,<1.4,10 mg/kg,
CCC[n+]1cccc(NC(=O)c2ccc(NC(=O)C34CCC(C(=O)Nc5ccc(C(=O)Nc6ccc[n+](CCC)c6)cc5)(CC3)CC4)cc2)c1.Cc1ccc(S(=O)(=O)[O-])cc1.Cc1ccc(S(=O)(=O)[O-])cc1,0.86,1.54,30 mg/kg,

Compound,Rm [1],log(ILSmax) (L1210 [2]),LD10 (Mus musculus),D40 (L1210 [3])
CCC[n+]1cccc(NC(=O)c2ccc(NC(=O)c3ccc(C(=O)Nc4ccc[n+](CCC)c4)cc3)cc2)c1.Cc1ccc(S(=O)(=O)[O-])cc1.Cc1ccc(S(=O)(=O)[O-])cc1,0.65,<1.4,15 mg/kg,
CC[n+]1ccc(Nc2ccc(NC(=O)CCCCCC(=O)Nc3ccc(Nc4cc[n+](CC)cc4)cc3)cc2)cc1.[O-][Cl+3]([O-])([O-])[O-].[O-][Cl+3]([O-])([O-])[O-],0.69,<1.4,20 mg/kg,
CC[n+]1cccc2cc(NC(=O)c3ccc(C(=O)Nc4ccc5c(ccc[n+]5CC)c4)c(N)c3)ccc21.Cc1ccc(S(=O)(=O)[O-])cc1.Cc1ccc(S(=O)(=O)[O-])cc1,-0.01,<1.4,6 mg/kg,
C[n+]1cccc2cc(NC(=O)COc3ccc(C(=O)Nc4ccc5c(ccc[n+]5C)c4)cc3)ccc21.Cc1ccc(S(=O)(=O)[O-])cc1.Cc1ccc(S(=O)(=O)[O-])cc1,-0.3,<1.4,0.6 mg/kg,
CC[n+]1ccc(Nc2ccc(NC(=O)CCCCCCC(=O)Nc3ccc(Nc4cc[n+](CC)cc4)cc3)cc2)cc1.[Br-].[Br-],0.83,<1.4,10 mg/kg,
CC[n+]1cccc2cc(NC(=O)c3ccc(C(=O)Nc4ccc5c(ccc[n+]5CC)c4)cc3)ccc21.Cc1ccc(S(=O)(=O)[O-])cc1.Cc1ccc(S(=O)(=O)[O-])cc1,0.03,1.43,4 mg/kg,
CC[n+]1cccc(NC(=O)c2ccc(NC(=O)c3ccc(C(=O)Nc4ccc[n+](CC)c4)cc3)cc2)c1.Cc1ccc(S(=O)(=O)[O-])cc1.Cc1ccc(S(=O)(=O)[O-])cc1,0.3,<1.4,8 mg/kg,
CCCCCC[n+]1cccc2cc(NC(=O)c3ccc(C(=O)Nc4ccc5c(ccc[n+]5CCCCCC)c4)cc3)ccc21.Cc1ccc(S(=O)(=O)[O-])cc1.Cc1ccc(S(=O)(=O)[O-])cc1,1.03,<1.4,27 mg/kg,
CC[n+]1ccccc1-c1ccc(NC(=O)c2ccc(C(=O)Nc3ccc(-c4cccc[n+]4CC)cc3)cc2)cc1.Cc1ccc(S(=O)(=O)[O-])cc1.Cc1ccc(S(=O)(=O)[O-])cc1,0.26,<1.4,10 mg/kg,
CCC[n+]1cccc2cc(NC(=O)CCc3ccc(C(=O)Nc4ccc5c(ccc[n+]5CCC)c4)cc3)ccc21.Cc1ccc(S(=O)(=O)[O-])cc1.Cc1ccc(S(=O)(=O)[O-])cc1,1.25,<1.4,2 mg/kg,
CC(=NNC(=N)N)c1ccc(NC(=O)c2ccc(C(=O)Nc3ccc(Nc4cc[n+](C)cc4)cc3)cc2)cc1.Cc1ccc(S(=O)(=O)O)cc1.Cc1ccc(S(=O)(=O)[O-])cc1,-0.15,,,
CC[n+]1cccc(NC(=O)c2ccc(NC(=O)c3ccc(C(=O)Nc4ccc(C(=O)Nc5ccc[n+](CC)c5)cc4C)cc3)c(C)c2)c1.Cc1ccc(S(=O)(=O)[O-])cc1.Cc1ccc(S(=O)(=O)[O-])cc1,0.47,<1.4,18 mg/kg,
C[n+]1ccccc1NC(=O)c1ccc(NC(=O)c2ccc(C(=O)Nc3ccc(C(=O)Nc4cccc[n+]4C)cc3)cc2)cc1.Cc1ccc(S(=O)(=O)[O-])cc1.Cc1ccc(S(=O)(=O)[O-])cc1,0.11,<1.4,7 mg/kg,
CC[n+]1cccc2cc(NC(=O)CCc3ccc(C(=O)Nc4ccc5c(ccc[n+]5CC)c4)cc3)ccc21.Cc1ccc(S(=O)(=O)[O-])cc1.Cc1ccc(S(=O)(=O)[O-])cc1,1.1,<1.4,1.6 mg/kg,
CC[n+]1ccccc1Nc1ccc(NC(=O)c2ccc(C(=O)Nc3ccc(Nc4cccc[n+]4CC)cc3)cc2)cc1.[I-].[I-],0.53,<1.4,16 mg/kg,
CCC[n+]1cccc(NC(=O)c2ccc(NC(=O)c3ccc(C(=O)Nc4ccc(C(=O)Nc5ccc[n+](CCC)c5)cc4)c(Cl)c3)cc2)c1.Cc1ccc(S(=O)(=O)[O-])cc1.Cc1ccc(S(=O)(=O)[O-])cc1,0.75,<1.4,40 mg/kg,
CCC[n+]1cccc(NC(=O)c2ccc(NC(=O)c3ccc(C(=O)Nc4ccc(C(=O)Nc5ccc[n+](CCC)c5)cc4)c(C)c3)cc2)c1.Cc1ccc(S(=O)(=O)[O-])cc1.Cc1ccc(S(=O)(=O)[O-])cc1,0.75,<1.4,30 mg/kg,
CC[n+]1ccccc1NC(=O)c1ccc(NC(=O)c2ccc(C(=O)Nc3ccc(C(=O)Nc4cccc[n+]4CC)cc3)cc2)cc1.Cc1ccc(S(=O)(=O)[O-])cc1.Cc1ccc(S(=O)(=O)[O-])cc1,0.57,<1.4,13 mg/kg,
CCC[n+]1ccccc1Nc1ccc(NC(=O)c2ccc(C(=O)Nc3ccc(Nc4cccc[n+]4CCC)cc3)cc2)cc1.Cc1ccc(S(=O)(=O)[O-])cc1.Cc1ccc(S(=O)(=O)[O-])cc1,0.71,<1.4,100 mg/kg,
